Results taken from patent publication US20220096508A1, “METHOD OF TREATMENT AND PHARMACEUTICAL DOSAGE FORM” (Aprea Therapeutics AB, priority 2019, published 2022).
Where two headings read alike, the source gives them in different places.

System: TP53 mutant myeloid neoplasms
Description: The study, identified as NCT03072043 on clinicaltrials.gov, is a multi-institution, open-label, phase Ib/II clinical trial conducted in 2 parts: a Phase 1 b part followed by a Simon's two-stage Phase 2 design. The study assesses the safety and efficacy of APR-246 in combination with azacitidine for the treatment of TP53 mutant myeloid neoplasms. All patients were pre-screened by NGS on peripheral blood (PB) or bone marrow (BM) samples to determine TP53 mutational status and therefore eligibility to participate in this study. A PB sample was obtained prior to treatment for NGS by a central laboratory, to evaluate baseline TP53 VAF and for serial analysis.
Treatment was administered on an outpatient basis. No investigational or commercial agents or therapies other than those described were administered with the intent to treat the patient's MDS or MDS/MPN. APR-246 was supplied by Aprea Therapeutics AB. The investigational medicinal product was a concentrate for solution, diluted with sterile 0.9% NaCl solution for infusion before administration. The solution for infusion was prepared with the prescribed dosage for each patient in accordance with the protocol and separate technical instruction.
The initial Phase 1 b part evaluated APR-246 administered with azacitidine. Cohorts of at least 3 evaluable patients were enrolled using a modified 3+3 design. Patients received IV infusions of APR-246 as a lead-in phase on days −14 to −11, starting at Dose Level 1 (see below and in Table 1) prior to starting cycle #1 of combination therapy with azacitidine (see FIG. 1) In all cycles, APR-246 was administered as a 6-hour infusion daily for four consecutive days (study days −14 to −11 of the lead in phase and day 1 to 4 of each combination cycle). • Dose Level 1 (starting dose): APR-246 21.0 mg/kg LBM (for the first 45 min)+29 mg/kg LBM (for 5 h 15 min) on days 1 to 4. • Dose Level 2: APR-246 30.0 mg/kg LBM (for first 45 min)+45.0 mg/kg LBM (for 5 h 15 min) on days 1 to 4. • Dose Level 3: APR-246 37.0 mg/kg LBM (for first 45 min)+63.0 mg/kg LBM (for 5 h 15 min) on days 1 to 4.
Thus, the combination therapy consisted of APR-246 on days 1-4 and azacitidine on days 4-10 of a 28-day cycle. Azacitidine was administered subcutaneously (SC) or intravenously (SC being preferred) at 75 mg/m^2 for 7 days (either for 7 consecutive days (days 4-10) or on 2+5 days (i.e. days 4-5 and 8-12)). Azacitidine was administered on day 4 at the same time as the final infusion of APR-246. Azacitidine was given following the completion of APR-246 infusion. Cohorts of at least 3 evaluable patients were enrolled using a modified 3+3 design. Patients were followed for at least 6 weeks (lead-in phase+cycle 1) before decision to dose escalation in the next cohort following a full safety assessment. The MTD was defined as the dose level below which DLT is manifested in 33% of the patients or at dose level 1 if DLT is manifested in <33% of the patients.
Following completion of the dose finding phase described above, a dose expansion was carried out, whereby patients are treated with APR-246 administered at the MTD with azacitidine on a 28-day cycle with the same dosing schedule as in Phase Ib, with the exception of no lead in phase (i.e. patients will start at day 1 of combination therapy with APR-246 on days 1˜4 and azacitidine on days 4-10 (or days 4-5 and 8-12) of a 28-day cycle as illustrated in FIG. 1), and the exception that the recommended Phase 2 dose was modified from 100 mg/kg LBM to a fixed dose regimen of 4500 mg/patient (i.e. APR-246 administration in 2 consecutive steps as a loading dose (1500 mg for first 45 min) and a maintenance dose (3000 mg for 5 h 15 min)).

[1] = MDS population (n=40), combination with azacitidine
[2] = protocol-defined efficacy evaluable MDS population (n=33), combination with azacitidine

## COCC1(CO)C(=O)C2CCN1CC2 (stereo not drawn) [APR-246, 2-hydroxymethyl-2-methoxymethyl-1-azabicyclo [2,2,2] octan-3-one]
MDS patients, combination with azacitidine
  patients able to discontinue therapy and proceed to allogeneic SCT: 40%
[1]
  CR rate: 50%
  ORR: 73%
Efficacy evaluable MDS patients, combination with azacitidine
  patients able to discontinue therapy and proceed to allogeneic SCT: 48%
human, in vivo
  recommended Phase 2 dose: 100 mg/kg lean body weight
Of 24 evaluable patients at the MTD, combination with azacitidine
  patients who achieved CR, Stage 1: More than 6
Of 45 evaluable patients, combination with azacitidine
  patients who achieved CR, Stage 2: More than 14
[2]
  CR: 61%
  ORR: 88%
